# Laboratory results as given in US5877202A, “Indole derivatives useful to treat estrogen-related neoplasms and disorders” (priority 1996, dated 1999).
# How the values were obtained:
# MCF-7 tumors = assay: Inhibition of growth of MCF-7 tumors implanted in nu/nu mice; assay type: in vivo, female nu/nu mice; conditions: for tumor volume: n = 5, in mm³
# [1] = tested on: tamoxifen-resistant LY-2 cells; assay: Inhibition of growth of tamoxifen-resistant LY-2 cells; assay type: cell-based; conditions: medium with 0.001 mg/ml insulin
# estrogen receptors = molecular target: T1, estrogen receptors (Homo sapiens, UniProt P03372); assay: Quantification of estrogen receptors in nuclear and whole cell extracts (ER-EIA monoclonal kit), Table 1; assay type: cell-based, human (MCF-7 human breast cancer cells); conditions: estrogen receptors in nuclear extracts
# T1 construct: estrogen receptor extracted from MCF-7 human breast tumor cells; endogenous in cells; host or cells: MCF-7 human breast cancer cells (nuclear extract, cytosol or whole cell extract)
# T1 sequence (P03372 1-595): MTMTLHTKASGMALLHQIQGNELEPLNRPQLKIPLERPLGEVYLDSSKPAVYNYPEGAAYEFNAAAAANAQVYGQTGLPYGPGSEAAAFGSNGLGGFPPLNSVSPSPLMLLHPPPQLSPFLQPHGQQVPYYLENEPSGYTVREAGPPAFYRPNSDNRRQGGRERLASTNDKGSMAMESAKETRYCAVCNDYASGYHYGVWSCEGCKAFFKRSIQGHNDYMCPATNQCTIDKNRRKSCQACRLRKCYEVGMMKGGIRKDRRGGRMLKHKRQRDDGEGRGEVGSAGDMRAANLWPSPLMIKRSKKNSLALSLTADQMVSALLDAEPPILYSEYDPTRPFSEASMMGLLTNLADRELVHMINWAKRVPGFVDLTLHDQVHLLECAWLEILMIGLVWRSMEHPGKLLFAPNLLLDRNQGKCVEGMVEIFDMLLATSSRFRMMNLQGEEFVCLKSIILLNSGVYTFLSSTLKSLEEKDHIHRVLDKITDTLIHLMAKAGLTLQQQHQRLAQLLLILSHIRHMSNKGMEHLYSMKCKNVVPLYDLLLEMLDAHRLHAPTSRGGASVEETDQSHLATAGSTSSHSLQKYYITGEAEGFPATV
# Protocol: Monolayers of MCF-7 human breast cancer cells are rinsed once with HBSS and scraped off culture dishes into 15 ml conical tubes with 5 ml HBSS. The cells are sedimented by centrifugation at 250×g for five minutes, suspended in 1 ml HBSS and sedimented by centrifugation at 2000 rpm in a tabletop centrifuge for five minutes in a 1.5 ml microfuge tube. Two PCV of a solution of a lysis buffer (25 mM HEPES, pH 7.8, 50 mM KCl, 0.5% Nonidet P 40, 2 mM dithiothreitol, 0.2 mM phenylmethylsulfonyl fluoride, 0.05 mg/ml leupeptin, 0.05 mg/ml aprotinin, 0.0025 mg/ml pepstatin, 0.005 mg/ml antipain) are added and cells are kept on ice for 15 minutes. Lysed cells are centrifuged for 3 minutes at 10,000×g, supernatant decanted, and kept as the cytosol fraction. Pellets are suspended in two PCV of extraction buffer (25 mM HEPES, pH 7.8, 500 mM KCl, 10% glycerol, 2 mM dithiothreitol and the above protease inhibitors), mixed for 20 minutes by inversion at 4 degrees C. and centrifuged at 10,000×g for 20 minutes. The supernatant is decanted and saved as nuclear extract. Both the nuclear extract and the cytosol are dialyzed for two hours against dialysis buffer (25 mM HEPES, pH 7.8, 50 mM KCl, 10% glycerol, 2 mM dithiothreitol and the above protease inhibitors). Nuclear and cytosol fractions are stored frozen at -80 degrees C. until used for mobility shift assays or determination of estrogen receptor content.
# Whole cell extracts of tumor cells are prepared by the method of Reese and Katzenellenbogen, Nuc. Acids Res., 19: 6595-6602 (1991), with some modifications. Cell monolayers are rinsed once with HBSS, then scraped into HBSS and sedimented by centrifugation (5 min., 250×g). After resuspending in 1 mL HBSS, the cells are again sedimented at 250×g for 5 min at 4° C. The cell pellet is resuspended in lysis/extract buffer containing 20 mM Tris, pH 7.5, 10% glycerol (v/v), 0.5M sodium chloride and 0.5% NP-40 (v/v) and incubated on ice for 25 minutes, then the supernatants are dialyzed against 25 mM HEPES, pH 7.8, 10% glycerol (v/v), 0.5 mM dithiothreitol and 50 mM potassium chloride for 2 hours at 4° C. Both the lysis/extraction and the dialysis buffers contain protease inhibitors which included 0.5 mM phenylmethylsulfonylfluoride, 0.05 mg/mL leupeptin, 0.05 mg/mL aprotinin, 0.00-25 mg/mL pepstatin, and 0.005 mg/mL antipain. Dialyzed whole cell extracts are stored in aliquots at -80° C. until used.
# The protein concentration for nucleus and cytosol fractions are determined with a BIO-RAD kit, according to the manufacturer's instructions.
# Estrogen receptor levels in nuclear and whole cell extracts of tumor cells were quanitated using the ER-EIA monoclonal kit manufactured by Abbott Laboratories (Diagnostic Division) according to the kit instructions.
# receptors in nuclear extracts.
# .dagger.WCE refers to IC50 value for estrogen receptors in whole cel
# A slash dividing two numbers indicates the results of two separate
# [2] = tested on: MCF-7 human breast tumor cells; assay: Clonigenic assay for MCF-7 human breast tumor cells; assay type: cell-based; conditions: for Colonies ± S.D.: 24 hours treatment, grown 22 days
# Protocol: MCF-7 cells (10^7) are added to 100 mm tissue culture dishes, allowed to adhere for 24 hours and then treated with either MDL 101,906 or ICI 164,384 for 24 hours. The cells are removed from the dishes with trypsin/EDTA, and washed twice by centrifugation. The cells were counted and 500 cells from each treatment group are added to triplicate wells of 6-well culture dishes. The cells are grown for 22 days. Colonies 1 mm diameter or greater are counted.
# GAPDH mRNA = GAPDH mRNA levels in treated MCF-7 human breast tumor cells (positive control probe); assay type: cell-based; conditions: 30 μM, 24 hr;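 note: Phosphoimager intensity of radioactive mRNA bands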
# Protocol: After treatment with 30 μM drug for 24 hr, total RNA is isolated according to the guanidinium isothiocyanate method using an RNA preparation kit from 5 Prime-3 Prime, Inc., following the manufacturer's instructions. The RNA is separated by formaldehyde gel electrophoresis and transferred to a nylon membrane.
smiles,measurement,setting,value
"CCCCN(C)C(=O)CCCCCCCNC(=O)Cc1c(C)n(C(=O)c2ccc(Cl)cc2)c2ccc(O)cc12 [MDL 101,906, 8-[[5-Hydroxy-1-(4-chlorobenzoyl)-2-methyl-1H-indol-3-yl]-acetylamino]-octanoic acid methyl-butyl-amide]",tumor volume,"MCF-7 tumors; 10 mg/kg i.p., day 14 after tumor implantation",49 ± 18
same,tumor volume,"MCF-7 tumors; 10 mg/kg i.p., day 22 after tumor implantation",111 ± 36
same,tumor volume,"MCF-7 tumors; 10 mg/kg i.p., day 29 after tumor implantation",155 ± 43
same,tumor volume,"MCF-7 tumors; 10 mg/kg i.p., day 36 after tumor implantation",255 ± 70
same,tumor volume,"MCF-7 tumors; 20 mg/kg i.p., day 14 after tumor implantation",58 ± 9
same,tumor volume,"MCF-7 tumors; 20 mg/kg i.p., day 22 after tumor implantation",140 ± 16
same,tumor volume,"MCF-7 tumors; 20 mg/kg i.p., day 29 after tumor implantation",197 ± 30
same,tumor volume,"MCF-7 tumors; 20 mg/kg i.p., day 36 after tumor implantation",282 ± 38
same,tumor volume,"MCF-7 tumors; 50 mg/kg i.p., day 14 after tumor implantation",77 ± 14
same,tumor volume,"MCF-7 tumors; 50 mg/kg i.p., day 22 after tumor implantation",143 ± 13
same,tumor volume,"MCF-7 tumors; 50 mg/kg i.p., day 29 after tumor implantation",178 ± 53
same,tumor volume,"MCF-7 tumors; 50 mg/kg i.p., day 36 after tumor implantation",291 ± 79
same,tumor volume,"MCF-7 tumors; 100 mg/kg i.p., day 14 after tumor implantation",56 ± 10
same,tumor volume,"MCF-7 tumors; 100 mg/kg i.p., day 22 after tumor implantation",81 ± 16
same,tumor volume,"MCF-7 tumors; 100 mg/kg i.p., day 29 after tumor implantation",110 ± 24
same,tumor volume,"MCF-7 tumors; 100 mg/kg i.p., day 36 after tumor implantation",170 ± 41
same,"tumor volume over time, dose dependence",MCF-7 tumors; 10 to 100 mg/kg i.p.,dose-dependent decrease in the tumor volume over time
same,decrease in tumor volume over control,"MCF-7 tumors; highest dose (100 mg/kg), 36 days after tumor implantation",55%
same,size of the tumors compared to control mice,"MCF-7 tumors; intraperitoneal injections, suspension in 20% DMSO/water",reduced the size of the tumors compared to control mice
same,IC50,[1],4.7 µM
same,IC50,estrogen receptors,19 µM
same,IC50,estrogen receptors; second of two separate experiments (after the slash),8.6 µM
same,Colonies ± S.D.,[2]; 10 μM,30 ± 10
same,Colonies ± S.D.,[2]; 20 μM,27 ± 5
same,Colonies ± S.D.,[2]; 50 μM,12 ± 2
same,activity at 10 µM,"[2]; Homo sapiens, MCF7, 528 h, 10 μM, read-out: Colonies, % Control",91%
same,activity at 20 µM,"[2]; Homo sapiens, MCF7, 528 h, 20 μM, read-out: Colonies, % Control",82%
same,activity at 50 µM,"[2]; Homo sapiens, MCF7, 528 h, 50 μM, read-out: Colonies, % Control",36%
same,GAPDH mRNA band intensity,GAPDH mRNA; replicate 1,"5,227"
same,GAPDH mRNA band intensity,GAPDH mRNA; replicate 2,"5,077"
